These results are taken from US12564588B2, “HECT E3 ubiquitin liagase inhibitors and uses thereof” (Northwestern University, priority 2021, dated 2026).

Experiment [1] concerns the target T1, recombinant UBE3A HECT domain (Homo sapiens, UniProt Q05086).
T1 construct: a truncated UBE3A protein (residues 495-852 of isoform 1) using E. coli; made in house; host or cells: E. coli
T1 sequence (Q05086 518-875): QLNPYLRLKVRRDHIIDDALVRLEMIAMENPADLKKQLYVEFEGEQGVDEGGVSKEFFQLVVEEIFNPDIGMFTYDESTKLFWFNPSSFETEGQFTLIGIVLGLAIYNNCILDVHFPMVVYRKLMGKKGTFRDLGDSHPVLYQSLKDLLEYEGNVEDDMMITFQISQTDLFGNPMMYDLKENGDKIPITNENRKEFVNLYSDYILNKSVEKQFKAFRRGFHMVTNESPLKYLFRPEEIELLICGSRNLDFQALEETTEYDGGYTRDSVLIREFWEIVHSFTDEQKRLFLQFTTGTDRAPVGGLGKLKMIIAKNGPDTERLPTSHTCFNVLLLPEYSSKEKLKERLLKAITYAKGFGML
Briefly: fluorescence thermal shift analysis (FTS). It counts as binding. Conditions: 0.5 uM UBE3A, Hepes buffer pH7.5, Tm shifted to lower temperature. The text has this:
FIG. 6A-B. Fluorescence thermal shift analysis of recombinant UBE3A HECT domain with the compound #3-1. (A) Melting curves of recombinant UBE3A HECT domain with multiple concentrations of #3-1 show the melting temperature Tm was shifted to lower temperature progressively with increase in #3-1 concentration. The rise of pre-transition background reading indicates destabilizing of the protein by the small molecule inhibitor, which is consists with the decrease of Tm by the compound. (B) Plot of normalized melting curves with respect to compound concentrations. The compound #3-1 shifts the melting temperature in a significant fashion, indicating specific binding. For example, the Tm is shifted 2.5 degree by 15 uM #3-1 and 5.1 degree by 25 uM #3-1 from the reference value. The test was done with 0.5 uM UBE3A in Hepes buffer (20 mM Hepes, 150 mM NaCl, pH7.5).
To verify the physical interaction between the HECT domain of UBE3A and the identified compounds and also develop a high throughput assay for further screening, we have developed a fluorescence thermal shift analysis (FTS). we have prepared a truncated UBE3A protein (residues 495-852 of isoform 1) using E. coli and performed preliminary FTS test (FIG. 6). […] Small molecule binding affects protein thermal stability, therefore can be detected through a shift in protein's thermal denaturation (melting) temperature (Tm).

Experiment [2] addresses T2, UBE3A (Homo sapiens, UniProt Q05086).
T2 sequence (Q05086 24-875 limits assumed): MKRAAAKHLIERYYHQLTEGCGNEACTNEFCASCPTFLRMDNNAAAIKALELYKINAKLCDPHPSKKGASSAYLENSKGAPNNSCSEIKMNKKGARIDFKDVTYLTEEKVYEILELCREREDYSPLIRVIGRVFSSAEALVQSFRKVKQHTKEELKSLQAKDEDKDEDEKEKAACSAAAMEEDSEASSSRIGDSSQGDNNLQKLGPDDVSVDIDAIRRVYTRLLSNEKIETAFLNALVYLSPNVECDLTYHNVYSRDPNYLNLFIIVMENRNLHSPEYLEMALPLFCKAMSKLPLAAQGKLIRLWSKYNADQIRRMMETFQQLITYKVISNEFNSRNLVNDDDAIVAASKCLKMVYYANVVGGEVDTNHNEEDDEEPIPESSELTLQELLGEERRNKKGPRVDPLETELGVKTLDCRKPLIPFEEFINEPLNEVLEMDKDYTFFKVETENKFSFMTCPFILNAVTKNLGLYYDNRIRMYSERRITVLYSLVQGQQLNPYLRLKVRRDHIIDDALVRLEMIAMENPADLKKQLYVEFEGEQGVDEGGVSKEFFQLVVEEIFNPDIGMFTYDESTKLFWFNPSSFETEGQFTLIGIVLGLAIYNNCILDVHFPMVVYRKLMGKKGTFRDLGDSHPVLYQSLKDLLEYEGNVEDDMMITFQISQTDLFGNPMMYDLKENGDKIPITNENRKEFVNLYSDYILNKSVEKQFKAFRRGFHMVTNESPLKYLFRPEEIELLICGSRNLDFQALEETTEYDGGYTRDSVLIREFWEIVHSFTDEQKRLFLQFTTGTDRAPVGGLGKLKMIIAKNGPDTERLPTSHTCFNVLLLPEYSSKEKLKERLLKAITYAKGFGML
Kind of experiment: in vitro ubiquitination assay (polyubiquitination of S5A). It counts as biochemical. Conditions: for IC50: S5A polyubiquitination, varying concentrations, estimated / preliminary; for inhibition of UBE3A-mediated polyubiquitination of S5A: compound at 100 μM, western/immunoblot readout. How it is done:
FIG. 3A-B. Identification of a potential UBE3A inhibitor compound by in vitro ubiquitination assay. (A). Purified UBA1 (E1), UBE2L3 (E2) and UBE3A (E3) were pre-incubated with each compound at 100 uM, followed by incubation with purified ubiquitin (Ub) and S5A in the presence of ATP. […] NC, negative control without active UBE3A; PC, positive control with active UBE3A but with no small molecule. (B). Structure of #3 compound (Zinc 23375107).
FIG. 4A-B. Screening for compounds that are structurally analogous to #3 compound and could bind to the druggable hotspot of the UBE3A HECT domain. Left panel (A): Purified UBA1 (E1), UBE2L3 (E2) and UBE3A (E3) were pre-incubated with structural analogs of #3 compound at 100 μM, followed by incubation with purified ubiquitin (Ub) and S5A in the presence of ATP.
FIG. 5A-B. Inhibition of the E3 activity of UBE3A by various concentrations of compound #3 and #3-1. The UBE3A activity was assayed by the in vitro ubiquitination assay using S5A as a substrate and the indicated concentrations of compound #3 (A) or #3-1 (B). The polyubiquitinated forms of S5A were quantified by western analysis.
We purchased 35 compounds among the 46 hits identified by the initial virtual screen, and tested their abilities to modulate the ubiquitin ligase activity of UBE3A. The in vitro ubiquitination assay was developed using purified ubiquitin (Ub), Uba1 (E1), UbcH7/UBE2L3 (E2), UBE3A (E3), and S5A/Angiocidin/PSMD4 (substrate), as a modification of our previously reported assay (19). The purchased compounds were dissolved in DMSO to generate a stock solution at 10 mM, and then their effects on UBE3A activity were tested by adding each compound at a final concentration of 100 μM. E1, E2 and E3 enzymes were first pre-incubated at 37° C. for 30 min in a buffer containing MgCl2, ATP and each compound. Subsequently, ubiquitin and S5A were added to the reaction and incubated for 60 more minutes. Samples were then analyzed by SDS-PAGE and immunoblotting, and polyubiquitination of the substrate S5A was determined as specific appearance of forms of anti-S5A immunoreactivity at higher molecular weights.

For experiment [3], the system named is HeLa cells. Kind of experiment: cytotoxicity in HPV-positive cervical cancer cells (alamarBlue cell viability). Format: cell-based. Conditions: Homo sapiens, 72 hrs incubation. Here is the method: FIG. 7. Cytotoxicity of the hit compound #3-1 in HPV-positive cervical cancer cells. HPV18-positive human cervical cancer HeLa cells were incubated for 72 hrs with the compound #3-1 at the indicated concentrations, followed by determination of cell viability by the alamarBlue™ HS Cell Viability Reagent (Thermo). Data are shown as means±SEM, and the EC50 is estimated to be 30 μM.
We have recently tested whether the compound #3.1 exert any cytotoxic action in HPV-positive cancer cells. Human cervical carcinoma HeLa cells are a widely used HPV18-positive cell lines. We incubated HeLa cells with the compound #3.1 at various concentrations for 72 hours and determined viability of the cells (FIG. 7). This study has shown that the compound #3.1 exerts cytotoxicity in a dose-dependent manner with EC50 at 30 μM.

For experiment [4], the target named is T2, UBE3A. Conditions: blocks UBE3A oligomerization by substituting Phe727; cited from earlier work.

Usually IC50 stands for the point on the concentration scale where inhibition reaches its midpoint. A word on the EC50: it is the concentration at which the effect is half-maximal. Read a high EC50 as weaker potency. Consider `COc1ccc(CNCc2cccc(C)c2)c(OCC(O)CN2CCN(C)CC2)c1` (stereo not shown) [#3-1, 1-(5-methoxy-2-{[(3-methylbenzyl)amino]methyl}phenoxy)-3-(4-methyl-1-piperazinyl)-2-propanol], for which the “Tm shift from the reference value” is 2.5 degree in experiment [1] (15 uM compound) and 5.1 degree in experiment [1] (25 uM compound). The IC50 in experiment [2] was roughly 10 µM. In addition, the entries for the “inhibition of UBE3A-mediated polyubiquitination of S5A” value (shortened to “inhibition”) in experiment [2] and in experiment [2] (listed as #3.1) were “capable of inhibiting the UBE3A-mediated polyubiquitination of S5A substrate” and “inhibited formation of PolyUb-S5A”, respectively. Further, the EC50 in experiment [3] was 30 µM.
Broadly, the Ki is the dissociation constant of the complex between target and ligand, obtained from inhibition or displacement. For the compound `CC(=O)N[C@@H](Cc1ccccc1)C(=O)O` [N-acetyl phenylalanine], the Ki in experiment [4] is 12000 µM.
For `COc1ccc(CNCC2CCOCC2)c(OCC(O)CN2CCN(C)CC2)c1` (stereo not shown) [#3, 1-(5-methoxy-2-{[(tetrahydro-2H-pyran-4-ylmethyl)amino]methyl}phenoxy)-3-(4-methyl-1-piperazinyl)-2-propanol], in experiment [2], the IC50 is roughly 100 µM and the “inhibition” value is listed as “inhibited formation of PolyUb-S5A”. Besides, the “inhibition” value in experiment [2] (listed as Zinc 23375107) is listed as “significantly inhibits polyubiquitination of S5A”.
